In brackets after ≈: the same amount, converted by molar mass. Like-named read-outs stand apart in the source and are kept apart here.
What was measured:
E. Coli 125 = assay: MIC in brain heart infusion (BHI) broth; type: cell-based; conditions: Escherichia coli
Excerpt: (§1) Generally twelve 2 fold dilutions of the test compound are employed, with initial concentration of the test drug being in the range of 50 to 200 mcg./ml. The susceptibility (MIC) of the test organism is accepted as the lowest concentration of compound capable of producing complete inhibition of growth as judged by the naked eye. A comparison of the activity of 4"-epi-9-deoxo-9a-methyl-9a-aza-9a-homoerythromycin A (IV) with that of an erythromycin A control is shown in replicate in the Table I.

E. Coli 129 = assay: MIC in brain heart infusion (BHI) broth; type: cell-based; conditions: Escherichia coli
Excerpt: as §1

E. Coli 266 = assay: MIC in brain heart infusion (BHI) broth; type: cell-based; conditions: Escherichia coli
Excerpt: as §1

E. Coli 470 = assay: MIC in brain heart infusion (BHI) broth; type: cell-based; conditions: Escherichia coli, BHI broth, read-out: MIC
Excerpt: as §1

Ent. aerog. 040 = assay: MIC in brain heart infusion (BHI) broth; type: cell-based
Excerpt: as §1

Ent. cloac. 009 = assay: MIC in brain heart infusion (BHI) broth; type: cell-based
Excerpt: as §1

Kleb. oxy. 024 = assay: MIC in brain heart infusion (BHI) broth; type: cell-based
Excerpt: as §1

Kleb. pn. 009 = assay: MIC in brain heart infusion (BHI) broth; type: cell-based
Excerpt: as §1

Kleb. pn. 031 = assay: MIC in brain heart infusion (BHI) broth; type: cell-based
Excerpt: as §1

Neiss. sic. 000 = assay: MIC in brain heart infusion (BHI) broth; type: cell-based
Excerpt: as §1

Past. mult. 001 = assay: MIC in brain heart infusion (BHI) broth; type: cell-based; conditions: BHI broth, read-out: MIC
Excerpt: as §1

Prov. strua. 013 = assay: MIC in brain heart infusion (BHI) broth; type: cell-based
Excerpt: as §1

Serr. mar. 017 = assay: MIC in brain heart infusion (BHI) broth; type: cell-based
Excerpt: as §1

Staph. aur. 005 = assay: MIC in brain heart infusion (BHI) broth; type: cell-based
Excerpt: as §1

Staph. aur. 052 = assay: MIC in brain heart infusion (BHI) broth; type: cell-based
Excerpt: as §1

Staph. aur. 400 = assay: MIC in brain heart infusion (BHI) broth; type: cell-based
Excerpt: as §1

Staph. epi 111 = assay: MIC in brain heart infusion (BHI) broth; type: cell-based
Excerpt: as §1

Strep. faec. 006 = assay: MIC in brain heart infusion (BHI) broth; type: cell-based
Excerpt: as §1

Strep. pneumo. 012 = assay: MIC in brain heart infusion (BHI) broth; type: cell-based
Excerpt: as §1

Strep. pyog. 203 = assay: MIC in brain heart infusion (BHI) broth; type: cell-based
Excerpt: as §1

H. influ. 012 = assay: MIC in brain heart infusion (BHI) broth; type: cell-based, Hemophilus influenzae; conditions: Haemophilus influenzae
Excerpt: as §1

H. influ. 036 = assay: MIC in brain heart infusion (BHI) broth; type: cell-based, Hemophilus influenzae; conditions: Haemophilus influenzae
Excerpt: as §1

H. influ. 038 = assay: MIC in brain heart infusion (BHI) broth; type: cell-based, Hemophilus influenzae; conditions: Haemophilus influenzae
Excerpt: as §1

H. influ. 042 = assay: MIC in brain heart infusion (BHI) broth; type: cell-based, Hemophilus influenzae; conditions: Haemophilus influenzae
Excerpt: as §1

H. influ. 051 = assay: MIC in brain heart infusion (BHI) broth; type: cell-based, Hemophilus influenzae; conditions: Haemophilus influenzae
Excerpt: as §1

H. influ. 073 = assay: MIC in brain heart infusion (BHI) broth; type: cell-based, Hemophilus influenzae; conditions: Haemophilus influenzae
Excerpt: as §1

H. influ. 078 = assay: MIC in brain heart infusion (BHI) broth; type: cell-based, Hemophilus influenzae; conditions: Haemophilus influenzae
Excerpt: as §1

H. influ. 081 = assay: MIC in brain heart infusion (BHI) broth; type: cell-based, Hemophilus influenzae; conditions: Haemophilus influenzae
Excerpt: as §1

[1] = system: erythromycin A susceptible organisms and Hemophilus influenzae; assay: spectrum of antibacterial activity; type: cell-based
Excerpt: as §1

[2] = oral absorption and half-life in vivo
[3] = microbiological (bioassay) determination of serum levels in rats
Description: Additionally, compound (IV) is tested in vivo by the well-known mouse protection test, or by a microbiological (bioassay) determination of serum levels in a variety of mammals (e.g., mouse, rat, dog).

[4] = 24 h, Day 1, BHI broth, read-out: MIC
[5] = 48 h, Day 2, BHI broth, read-out: MIC

For `CC[C@H]1OC(=O)[C@H](C)[C@@H](O[C@H]2C[C@@](C)(OC)[C@H](O)[C@H](C)O2)[C@H](C)[C@@H](O[C@@H]2O[C@H](C)C[C@H](N(C)C)[C@H]2O)[C@](C)(O)C[C@@H](C)CN(C)[C@H](C)[C@@H](O)[C@]1(C)O` [Compound (IV), 4"-epi-9-deoxo-9a-methyl-9a-aza-9a-homoerythromycin A], the MIC (E. Coli 125; 24 h) was 6.25 µg/mL (≈ 8.34 µM), the MIC (E. Coli 125; 48 h) was 6.25 µg/mL (≈ 8.34 µM) and the MIC (E. Coli 129; 24 h) was 1.56 µg/mL (≈ 2.08 µM). The MIC (E. Coli 129; 48 h) was 6.25 µg/mL (≈ 8.34 µM), the MIC (E. Coli 266; 24 h) was 3.12 µg/mL (≈ 4.17 µM) and the MIC (E. Coli 266; 48 h) was 6.25 µg/mL (≈ 8.34 µM). It also gave an MIC (E. Coli 470; 24 h, Day 1) of 0.78 µg/mL (≈ 1.04 µM), an MIC (E. Coli 470; 48 h, Day 2) of 0.78 µg/mL (≈ 1.04 µM) and an MIC (Ent. aerog. 040; 24 h, Day 1) of 12.5 µg/mL (≈ 16.7 µM). For the same compound, the MIC (Ent. aerog. 040; 48 h, Day 2) was 12.5 µg/mL (≈ 16.7 µM), the MIC (Ent. cloac. 009; 24 h, Day 1) was 25 µg/mL (≈ 33.4 µM) and the MIC (Ent. cloac. 009; 48 h, Day 2) was 25 µg/mL (≈ 33.4 µM). It also gave an MIC (Kleb. oxy. 024; 24 h, Day 1) of 12.5 µg/mL (≈ 16.7 µM), an MIC (Kleb. oxy. 024; 48 h, Day 2) of 12.5 µg/mL (≈ 16.7 µM) and an MIC (Kleb. pn. 009; 24 h, Day 1) of 12.5 µg/mL (≈ 16.7 µM). For the same compound, the MIC (Kleb. pn. 009; 48 h, Day 2) was 12.5 µg/mL (≈ 16.7 µM), the MIC (Kleb. pn. 031; 24 h, Day 1) was 12.5 µg/mL (≈ 16.7 µM) and the MIC (Kleb. pn. 031; 48 h, Day 2) was 12.5 µg/mL (≈ 16.7 µM). The MIC (Neiss. sic. 000; [4]) was 0.2 µg/mL (≈ 0.267 µM), the MIC (Neiss. sic. 000; 48 h) was 0.39 µg/mL (≈ 0.521 µM) and the MIC (Past. mult. 001; 24 h, Day 1) was 0.1 µg/mL (≈ 0.134 µM). The MIC (Past. mult. 001; 48 h, Day 2) was 0.1 µg/mL (≈ 0.134 µM), the MIC (Prov. strua. 013; 24 h, Day 1) was 50 µg/mL (≈ 66.8 µM) and the MIC (Prov. strua. 013; 48 h, Day 2) was 50 µg/mL (≈ 66.8 µM). It also gave an MIC (Serr. mar. 017; 24 h, Day 1) of 50 µg/mL (≈ 66.8 µM), an MIC (Serr. mar. 017; 48 h, Day 2) of 50 µg/mL (≈ 66.8 µM) and an MIC (Staph. aur. 005; [4]) of 0.2 µg/mL (≈ 0.267 µM). The MIC (Staph. aur. 005; 48 h) was 0.39 µg/mL (≈ 0.521 µM), the MIC (Staph. aur. 052; [4]) was 0.2 µg/mL (≈ 0.267 µM) and the MIC (Staph. aur. 052; 48 h) was 0.39 µg/mL (≈ 0.521 µM). It also gave an MIC (Staph. aur. 400; 24 h) of 3.12 µg/mL (≈ 4.17 µM), an MIC (Staph. aur. 400; [5]) of 12.5 µg/mL (≈ 16.7 µM) and an MIC (Staph. epi 111; 24 h, Day 1) of 0.1 µg/mL (≈ 0.134 µM). For the same compound, the MIC (Staph. epi 111; 48 h, Day 2) was 0.2 µg/mL (≈ 0.267 µM), the MIC (Strep. faec. 006; 24 h) was 1.56 µg/mL (≈ 2.08 µM) and the MIC (Strep. faec. 006; [5]) was 0.78 µg/mL (≈ 1.04 µM). It also gave an MIC (Strep. pneumo. 012; 24 h, Day 1) of 0.025 µg/mL (≈ 0.0334 µM), an MIC (Strep. pneumo. 012; 48 h, Day 2) of 0.025 µg/mL (≈ 0.0334 µM) and an MIC (Strep. pyog. 203; 24 h, Day 1) of 0.025 µg/mL (≈ 0.0334 µM). For the same compound, the MIC (Strep. pyog. 203; 48 h, Day 2) was 0.025 µg/mL (≈ 0.0334 µM), the MIC (H. influ. 012; 24 h, Day 1) was 0.39 µg/mL (≈ 0.521 µM) and the MIC (H. influ. 012; 48 h, Day 2) was 0.39 µg/mL (≈ 0.521 µM). For the same compound, the MIC (H. influ. 036; 24 h, Day 1) was 0.39 µg/mL (≈ 0.521 µM), the MIC (H. influ. 036; 48 h, Day 2) was 0.39 µg/mL (≈ 0.521 µM) and the MIC (H. influ. 038; 24 h) was 0.39 µg/mL (≈ 0.521 µM). For the same compound, the MIC (H. influ. 038; [5]) was 0.78 µg/mL (≈ 1.04 µM), the MIC (H. influ. 042; 24 h, Day 1) was 0.39 µg/mL (≈ 0.521 µM) and the MIC (H. influ. 042; 48 h, Day 2) was 0.39 µg/mL (≈ 0.521 µM). The MIC (H. influ. 051; 24 h) was 0.39 µg/mL (≈ 0.521 µM), the MIC (H. influ. 051; [5]) was 0.78 µg/mL (≈ 1.04 µM) and the MIC (H. influ. 073; 24 h) was 0.39 µg/mL (≈ 0.521 µM). The MIC (H. influ. 073; [5]) was 0.78 µg/mL (≈ 1.04 µM), the MIC (H. influ. 078; 24 h, Day 1) was 0.39 µg/mL (≈ 0.521 µM) and the MIC (H. influ. 078; 48 h, Day 2) was 0.39 µg/mL (≈ 0.521 µM). For the same compound, the MIC (H. influ. 081; 24 h) was 0.39 µg/mL (≈ 0.521 µM), the MIC (H. influ. 081; [5]) was 0.78 µg/mL (≈ 1.04 µM) and the “spectrum of antibacterial activity” value [1] was “relatively broad spectrum of antibacterial activity which includes erythromycin A susceptible organisms and, in addition, fully incorporates the major respiratory pathogen Hemophilus influenzae”. For the same compound, the half-life in vivo ([2]; in vivo) was “extraordinarily long half-life in vivo”, the oral absorption ([2]; oral) was “high oral absorption” and the “absorption after oral dosage” value [3] was “exceptionally well absorbed”. The serum levels ([3]; oral) was “exceptionally high and long lasting serum levels”.
